Reference: paper PMC8322138, “BRCA2 binding through a cryptic repeated motif to HSF2BP oligomers does not impact meiotic recombination” (Nature Communications, 2021)
Ends that are not written are not given here.

Key:
ARM domain of HSF2BP [1] = molecular target: T1, ARM domain of HSF2BP (Homo sapiens, UniProt O75031); assay: ITC of BRCA2 fragments with HSF2BP armadillo domain; format: binding; settings: for n (stoichiometry) / ΔG / −TΔS / ΔH (±error): 293 K; for affinity relative to F0: compared with the affinity measured between ARM and F0
T1 construct: The armadillo domain of HSF2BP, from aa 122 to aa 334; 6xHis-TEV (N, cleaved yes); made in house; host or cells: E. coli BL21 DE3 Rosetta2
T1 sequence (O75031 122-334): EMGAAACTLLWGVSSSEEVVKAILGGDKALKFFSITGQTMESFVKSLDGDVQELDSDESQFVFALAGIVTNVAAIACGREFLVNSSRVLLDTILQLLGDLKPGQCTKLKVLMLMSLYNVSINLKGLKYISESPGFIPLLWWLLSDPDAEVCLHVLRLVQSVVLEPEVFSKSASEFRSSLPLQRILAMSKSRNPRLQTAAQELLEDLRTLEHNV
From the text: (§1) Human full-length HSF2BP WT and R200T were expressed using a pETM11 (6xHis-TEV) expression vector in E. coli BL21 DE3 Rosetta2 cells, and purified as previously reported (Brandsma et al., Cell Rep 2019). The armadillo domain of HSF2BP, from aa 122 to aa 334, which we will further name ARM, was similarly expressed using a pETM11 (6xHis-TEV) expression vector in BL21 DE3 Rosetta2 cells and purified as full-length HSF2BP.
(§2) Human BRCA2 fragment F0 was expressed using a pET-22b expression vector as a fusion protein comprising BRCA2 from aa 2213 to aa 2342 (including mutation C2332T to avoid oxidation problems), a TEV site, a GB1 and 6xHis tag, in E. coli BL21 DE3 Star cells. The BRCA2 gene was optimized for expression in bacteria and synthesized by Genscript. In addition, smaller BRCA2 fragments were produced using the same strategy: FNMR and F15X corresponding to aa 2252 to aa 2342 and aa 2291 to aa 2343, respectively. The smallest fragment F15X∆12, from aa 2312 to aa 2342, was synthesized by Genecust.
(§3) ITC experiments were performed using a high-precision VP-ITC instrument (GE Healthcare) at 293 K. To characterize the interactions between HSF2BP and BRCA2 fragments (WT, variants), the proteins were dialyzed against 25 mM Tris pH 7.5, 250 mM NaCl, 5 mM β-mercaptoethanol. The HSF2BP (or ARM domain) was in the sample cell at 10–20 μM and was titrated by BRCA2 fragments at 40–100 μM, using 10 μL injections with 210 s intervals between each injection. The first 2 μL injection was ignored in the final data analysis. The integration of the peaks corresponding to each injection. the correction for the baseline and the fit were performed using the Origin 7.0 software provided by the manufacturer, to obtain the stoichiometry (N), dissociation constant (Kd), and enthalpy of complex formation (ΔH) for each interaction. Two replicates were performed for each experiment.

ARM domain of HSF2BP [2] = molecular target: T1, ARM domain of HSF2BP; assay: SEC-MALS of ARM free or bound to F15X; format: physicochemical
Experimental: Size-exclusion chromatography (SEC) coupled to MALS was used in order to measure the molecular masses of the complexes in solution. Therefore, HSF2BP and ARM proteins were loaded in the presence and absence of the BRCA2 fragment F15X on a Superdex 200 10/300 GL (GE Healthcare) using a HPLC Shimadzu system coupled to MALS/QELS/UV/RI (Wyatt Technology). The chromatography buffer was 25 mM Tris-HCl buffer, pH 7.5, 250 mM NaCl, 5 mM β-mercaptoethanol. The proteins were injected at 0.8–1 mg/ml in 100 μl. Data were analyzed using the ASTRA software; a calibration was performed with BSA as a standard.

ARM domain of HSF2BP [3] = molecular target: T1, ARM domain of HSF2BP; assay: SEC-SAXS of ARM bound to F15X; format: physicochemical
Experimental: SEC coupled to SAXS is available on the SWING beamline at synchrotron SOLEIL, in order to obtain a distance distribution corresponding to each sample in solution. The free HSF2BP protein as well as the complex between ARM and F15X were analyzed using a Bio SEC-3 column (Agilent) equilibrated in 25 mM Tris-HCl buffer, pH 7.5, 250 mM NaCl, and 5 mM β-mercaptoethanol. The proteins were loaded at a concentration of 6 and 10 mg/ml, in order to observe an elution peak at an OD280nm of 1 and 1.2 AU, respectively.

HSF2BP FL = molecular target: T2, HSF2BP FL (Homo sapiens, UniProt O75031); assay: ITC of BRCA2 fragments with full-length HSF2BP; format: binding; settings: for n (stoichiometry) / ΔG / −TΔS / ΔH (±error) / affinity (in words): 293 K
T2 construct: Human full-length HSF2BP WT and R200T were expressed; 6xHis-TEV (N, cleaved yes); made in house; host or cells: E. coli BL21 DE3 Rosetta2
T2 sequence (O75031 1-334): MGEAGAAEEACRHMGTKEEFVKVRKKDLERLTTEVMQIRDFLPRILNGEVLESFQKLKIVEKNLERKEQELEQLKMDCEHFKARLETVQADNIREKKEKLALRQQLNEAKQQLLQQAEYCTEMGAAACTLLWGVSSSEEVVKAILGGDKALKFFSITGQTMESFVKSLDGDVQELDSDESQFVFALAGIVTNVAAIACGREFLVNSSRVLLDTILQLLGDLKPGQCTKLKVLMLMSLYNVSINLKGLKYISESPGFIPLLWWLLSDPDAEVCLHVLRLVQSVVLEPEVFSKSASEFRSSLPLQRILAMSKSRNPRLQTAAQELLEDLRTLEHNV
From the text: as §1, §2, §3

ARM domain of HSF2BP [4] = molecular target: T1, ARM domain of HSF2BP; assay: Analytical gel filtration of ARM with F15XΔ12; format: physicochemical; settings: SEC, Superose 6 Increase 10/300, ARM to peptide ratio 1:1.2, pH 7.5
Experimental: SEC was also used to characterize ARM and ARM bound to F15XΔ12. The ARM domain was loaded on a Superose 6 Increase 10/300 (GE Healthcare) alone (at 2 mg/ml) or bound to F15XΔ12 (at 5 mg/ml, ARM to peptide ratio 1:1.2) in 25 mM Tris-HCl buffer, pH 7.5, 250 mM NaCl, and 5 mM β-mercaptoethanol. The OD values from the elution of ARM alone were multiplied by 2.5 to be compared to the OD values from the elution of ARM bound to F15XΔ12.

ARM domain of HSF2BP [5] = molecular target: T1, ARM domain of HSF2BP; assay: 2D NMR 1H-15N HSQC of 15N-labeled F0 with ARM; format: binding; settings: 15N-F0 100 μM, ARM 1:1, 950 MHz, 283 K; peaks of S2252-Q2342
Experimental: For NMR analysis, ^15N-labeled or ^15N- and ^13C-labeled BRCA2 fragments were produced in E. coli BL21 DE3 Star cells grown in M9 medium containing either 0.5 g/l ^15NH4Cl or 0.5 g/l ^15NH4Cl and 2 g/l ^13C-glucose, respectively. […]
The ^15N/^13C-labeled F0 fragment was analyzed by 3D heteronuclear NMR. in order to assign its Hn, N, Cα, Cβ, and Co chemical shifts, and identify its binding site to HSF2BP. Therefore, 3D NMR HNCA, CBCACONH, HNCACB, HNCANNH, HNCO, and HNCACO experiments were performed on a 700 MHz Bruker AVANCE NEO spectrometer equipped with a triple resonance cryogenic TCI probe at 283 K. The data were processed using Topspin 4.0 (Bruker) and analyzed using CCPNMR 2.4[49]. […] For binding studies, 2D NMR ^1H-^15N HSQC experiments were recorded on a 3-mm-diameter sample tube containing the ^15N-labeled F0 at 100 μM in the absence and presence of the ARM domain at 100 μM, on a 950 MHz Bruker Avance III spectrometer equipped with a triple resonance cryogenic TCI probe at 283 K.

[6] = pH 7.5, expt 1, error in brackets
[7] = pH 7.5, expt 2, error in brackets

`CC[C@H](C)[C@H](NC(=O)[C@H](CCCNC(=N)N)NC(=O)[C@H](CC(=O)O)NC(=O)[C@H](Cc1ccccc1)NC(=O)[C@H](CCC(=O)O)NC(=O)[C@@H](N)CC(N)=O)C(=O)N[C@H](C(=O)N[C@@H](CCC(=O)O)C(=O)N[C@@H](CC(N)=O)C(=O)N[C@@H](CCC(N)=O)C(=O)N[C@@H](CCC(=O)O)C(=O)N[C@@H](CCCCN)C(=O)N[C@@H](CO)C(=O)N[C@@H](CC(C)C)C(=O)N[C@@H](CCCCN)C(=O)N[C@@H](C)C(=O)N[C@@H](CO)C(=O)N[C@@H](CCCCN)C(=O)N[C@@H](CO)C(=O)N[C@H](C(=O)N1CCC[C@H]1C(=O)N[C@@H](CC(=O)O)C(=O)NCC(=O)N[C@H](C(=O)N[C@H](C(=O)N[C@@H](CCCCN)C(=O)N[C@@H](CC(=O)O)C(=O)N[C@@H](CCCNC(=N)N)C(=O)N[C@@H](CCCNC(=N)N)C(=O)N[C@@H](CC(C)C)C(=O)N[C@@H](Cc1ccccc1)C(=O)N[C@@H](CCSC)C(=O)N[C@@H](Cc1c[nH]cn1)C(=O)N[C@@H](Cc1c[nH]cn1)C(=O)N[C@H](C(=O)N[C@@H](CO)C(=O)N[C@@H](CC(C)C)C(=O)N[C@@H](CCC(=O)O)C(=O)N1CCC[C@H]1C(=O)N[C@H](C(=O)N[C@H](C(=O)N[C@H](C(=O)N[C@H](C(=O)N1CCC[C@H]1C(=O)N[C@@H](Cc1ccccc1)C(=O)N[C@@H](CCCNC(=N)N)C(=O)N[C@H](C(=O)N[C@H](C(=O)N[C@@H](CCCCN)C(=O)N[C@@H](CCC(=O)O)C(=O)N[C@@H](CCCNC(=N)N)C(=O)N[C@@H](CCC(N)=O)C(=O)N[C@@H](CCC(=O)O)C(=O)O)[C@@H](C)O)[C@@H](C)O)C(C)C)[C@@H](C)O)[C@@H](C)O)[C@@H](C)CC)C(C)C)[C@@H](C)CC)[C@@H](C)O)[C@@H](C)O)[C@@H](C)CC` [F15X] was tested, and the “n (stoichiometry)” value (ARM domain of HSF2BP [1]; pH 7.5, expt 1) was 0.33, the ΔG (ARM domain of HSF2BP [1]; pH 7.5, expt 1) was -10.6 kcal/mol and the “−TΔS” value (ARM domain of HSF2BP [1]; pH 7.5, expt 1) was -0.4 kcal/mol. The “ΔH (±error)” value (ARM domain of HSF2BP [1]; [6]) was −10.2 (0.1) kcal/mol, the “n (stoichiometry)” value (ARM domain of HSF2BP [1]; pH 7.5, expt 2) was 0.40 and the ΔG (ARM domain of HSF2BP [1]; pH 7.5, expt 2) was -10.7 kcal/mol. For the same molecule, the “−TΔS” value (ARM domain of HSF2BP [1]; pH 7.5, expt 2) was -1.5 kcal/mol, the “ΔH (±error)” value (ARM domain of HSF2BP [1]; [7]) was −9.2 (0.1) kcal/mol and the “affinity relative to F0” value (ARM domain of HSF2BP [1]) was “about threefold higher”. For the same molecule, the “oligomeric state of ARM” value (ARM domain of HSF2BP [2]; SEC-MALS and SEC-SAXS) was “tetrameric”, the “molecular weight of species in solution” value (ARM domain of HSF2BP [2]; SEC-MALS, Superdex 200 10/300 GL, 25 mM Tris-HCl pH 7.5, 250 mM NaCl, 5 mM β-mercaptoethanol) was 94 kDa and the “Dmax of complex with ARM” value (ARM domain of HSF2BP [3]) was 104 Å. For the same molecule, the “Rg of complex with ARM” value (ARM domain of HSF2BP [3]) was 34 Å and the “molecular weight of complex with ARM” value (ARM domain of HSF2BP [3]; Bio SEC-3, 25 mM Tris-HCl pH 7.5, 250 mM NaCl, theoretical mass of four ARM bound to two F15X 108 kDa) was 109 kDa.

With “DGTIKDRRLFMHHVSLEPITTVPFRTTKERQE [F15XΔ12]” the “n (stoichiometry)” value (HSF2BP FL; pH 7.5, expt 1) was 0.89, the ΔG (HSF2BP FL; pH 7.5, expt 1) was -7.8 kcal/mol and the “−TΔS” value (HSF2BP FL; pH 7.5, expt 1) was -6.1 kcal/mol. For the same molecule, the “ΔH (±error)” value (HSF2BP FL; [6]) was −1.7 (0.3) kcal/mol, the “n (stoichiometry)” value (HSF2BP FL; pH 7.5, expt 2) was 0.90 and the ΔG (HSF2BP FL; pH 7.5, expt 2) was -7.6 kcal/mol. The “−TΔS” value (HSF2BP FL; pH 7.5, expt 2) was -5.8 kcal/mol, the “ΔH (±error)” value (HSF2BP FL; [7]) was −1.8 (0.2) kcal/mol and the “affinity (in words)” value (HSF2BP FL; pH 7.5, listed as F15X∆12) was “in the micromolar range”. The “affinity (in words)” value (HSF2BP FL; pH 7.5, listed as motif 2) was “micromolar affinity”, the stoichiometry (HSF2BP FL; BRCA2 peptide per HSF2BP) was 1 and the “affinity relative to F0 (weaker)” value (HSF2BP FL; weaker than the affinity of HSF2BP for F0) was 1000 -fold. The “oligomerization of ARM upon binding” value (ARM domain of HSF2BP [4]; listed as F15X∆12) was “does not oligomerize” and the “oligomerization of ARM upon binding” value (ARM domain of HSF2BP [4]; listed as motif 2) was “unable by itself to trigger oligomerization”.

B1: FNMR: BRCA2 fragment aa 2252 to aa 2342, recombinant (protein)
chain: SLFTCPENEEMVLSNSRIGKRRGEPLILVGEPSIKRNLLNEFDRIIENQEKSLKASKSTPDGTIKDRRLFMHHVSLEPITTVPFRTTKERQ
modifications: left off: GB1, C-terminal, cleaved | His6, C-terminal, cleaved
notes: BRCA2 fragment aa 2252 to aa 2342, recombinant
B1 was tested, and the ΔG (ARM domain of HSF2BP [1]; pH 7.5, expt 1) was -10.8 kcal/mol, the “−TΔS” value (ARM domain of HSF2BP [1]; pH 7.5, expt 1) was -1.2 kcal/mol and the “ΔH (±error)” value (ARM domain of HSF2BP [1]; [6]) was −9.6 (0.1) kcal/mol. The ΔG (ARM domain of HSF2BP [1]; pH 7.5, expt 2) was -10.5 kcal/mol, the “−TΔS” value (ARM domain of HSF2BP [1]; pH 7.5, expt 2) was -1.1 kcal/mol and the “ΔH (±error)” value (ARM domain of HSF2BP [1]; [7]) was −9.4 (0.2) kcal/mol. For the same molecule, the “affinity relative to F0” value (ARM domain of HSF2BP [1]) was “about threefold higher” and the “decrease of HSQC peak intensities” value (ARM domain of HSF2BP [5]) was “more than 60%”.
